The subject of test [1] is blood cancer cell lines (e.g. HL-60, Jurkat, Raji, Ramos, Daudi, MOLT-4). In words: Cell based assay, cell viability (CellTiter-Glo), blood cancer cell lines. To be noted: Homo sapiens. The method in brief:
(§1)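 Luminescent ATP assay quantified surviving cells after three days of treatment. Compound was applied at final concentrations of 0 to 2 μM, starting 24 h after cells were seeded.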
For orientation: Cellular ATP, detected with luciferase, serves as a proxy for viable cell number.

For the next test, the system named is brain cancer cell lines. In words: Cell based assay, cell viability (CellTiter-Glo), brain cancer cell lines. To be noted: Homo sapiens.
In test [2] the test system is pancreatic cancer cell lines (e.g. MIA PaCa-2). As to the kind of experiment: Cell based assay, cell viability (CellTiter-Glo), pancreatic cancer cell lines. To be noted: Homo sapiens. The method in brief:
as §1

For the next test, the system named is renal cancer cell lines. In words: Cell based assay, cell viability (CellTiter-Glo), renal cancer cell lines. To be noted: Homo sapiens; ACHN cells. Put shortly: as §1
Test [3] relates to cervical carcinoma cell lines. As to the kind of experiment: Cell based assay, cell viability (CellTiter-Glo), cervical carcinoma cell lines. To be noted: Homo sapiens; HeLa cells.
[4] abbreviates: MV4-11, blood cancer cell line MV-4-11, 72 hours, read-out: IC50, MV-4-11.
Where [5] appears, read: blood cancer cell line Daudi, 72 hours, read-out: IC50, Daudi.
The mark [6] stands for this setting: blood cancer cell line HL-60, 72 hours, read-out: IC50, HL-60.
[7] abbreviates: blood cancer cell line Jurkat, 72 hours, read-out: IC50, Jurkat.
Setting [8] is: blood cancer cell line MOLT-4, 72 hours, read-out: IC50, MOLT-4.
Setting [9] is: blood cancer cell line Raji, 72 hours, read-out: IC50, Raji.
Where [10] appears, read: blood cancer cell line Ramos (RA 1), 72 hours, read-out: IC50, Ramos (RA 1).
The mark [11] stands for this setting: blood cancer cell line U-937, 72 hours, read-out: IC50, U-937.
[12] abbreviates: U138-MG, U-138 MG cell line, read-out: IC50, Brain cancer cell line U-138 MG.
Setting [13] is: T98G cell line, read-out: IC50, Brain cancer cell line T98G.
Setting [14] is: U-251 MG cell line, read-out: IC50, Brain cancer cell line U-251 MG.
Where [15] appears, read: pancreatic cancer cell line AsPC-1, 72 hours, read-out: IC50, AsPC-1.
Setting [16] is: pancreatic cancer cell line BxPC-3, 72 hours, read-out: IC50, BxPC-3.
[17] abbreviates: pancreatic cancer cell line CFPAC-1, 72 hours, read-out: IC50, CFPAC-1.
Setting [18] is: pancreatic cancer cell line Capan-1, 72 hours, read-out: IC50, Capan-1.
[19] abbreviates: pancreatic cancer cell line Capan-2, 72 hours, read-out: IC50, Capan-2.
Setting [20] is: pancreatic cancer cell line MIA PaCa-2, 72 hours, read-out: IC50, MIA PaCa-2.
Where [21] appears, read: pancreatic cancer cell line PANC-1, 72 hours, read-out: IC50, PANC-1.

Here are results for five molecules from patent US11464770B2, “Anticancer pharmaceutical composition” (NATIONAL CANCER CENTER, priority 2016, dated 2022).

Each structure is given as a SMILES string. Where two headings read alike, the source gives them in different places. Where only a bound is given, the exact number is not on record here.

What is called IC50 is the midpoint of a concentration-inhibition curve.

With `CC(=O)c1c([S+]([O-])C(C)c2ccccc2)[nH]c2c(Br)ccc(Cl)c2c1=O` (stereo not shown) [Compound 26, 3-acetyl-8-bromo-5-chloro-2-((1-phenylethyl)sulfinyl)quinolin-4(1H)-one], the IC50 in test [1] (setting [4]) is over 2000 nM; in test [1] (setting [5]), over 2000 nM; in test [1] (setting [6]), over 2000 nM; in test [1] (setting [7]) it was 1790 nM; in test [1] (setting [8]), 1740 nM; in test [1] (setting [9]) it was over 2000 nM. For the same molecule, the IC50 (in test [1] (setting [10]); in test [1] (setting [11]); in the test with brain cancer cell lines (setting [12]); with brain cancer cell lines (setting [13]); in the test on brain cancer cell lines (setting [14]); in test [2] (setting [15])) was over 2000 nM throughout. Moreover, the concentration for half-maximal inhibition (IC50) was over 2000 nM in test [2] (setting [16]); over 10000 nM in test [2] (setting [17]); over 2000 nM in test [2] (setting [18]); over 2000 nM in test [2] (setting [19]); over 2000 nM in test [2] (setting [20]); over 2000 nM in test [2] (setting [21]). The 50% inhibitory concentration (IC50) was over 2000 nM in the test on renal cancer cell lines and over 10000 nM in test [3].
Turning to `CC(=O)c1c(SCc2cccc(C#N)c2)[nH]c2c(Br)ccc(Cl)c2c1=O` [Compound 27, 3-(((3-acetyl-8-bromo-5-chloro-4-oxo-1,4-dihydroquinolin-2-yl)thio)methyl)benzonitrile], the IC50 in test [1] (setting [4]), in test [1] (setting [5]), in test [1] (setting [6]), in test [1] (setting [7]), in test [1] (setting [8]) and in test [1] (setting [9]) was over 2000 nM throughout. The IC50 in test [1] (setting [10]) is over 2000 nM; in test [1] (setting [11]), over 2000 nM; in the test on brain cancer cell lines (setting [12]), over 10000 nM; in the test with brain cancer cell lines (setting [13]) it was over 10000 nM; with brain cancer cell lines (setting [14]), over 2000 nM; in test [2] (setting [15]), over 2000 nM. For the same molecule, the concentration for half-maximal inhibition (IC50) was over 2000 nM in test [2] (setting [16]); over 10000 nM in test [2] (setting [17]); over 2000 nM in test [2] (setting [18]); over 2000 nM in test [2] (setting [19]); over 2000 nM in test [2] (setting [20]); over 2000 nM in test [2] (setting [21]). In addition, the IC50 was over 2000 nM in the test with renal cancer cell lines and over 10000 nM in test [3].
`CC(=O)c1c([S+]([O-])Cc2cccc(C#N)c2)[nH]c2c(Br)ccc(Cl)c2c1=O` (stereo not shown) [Compound 28, 3-(((3-acetyl-8-bromo-5-chloro-4-oxo-1,4-dihydroquinolin-2-yl)sulfinyl)methyl)benzonitrile]: the IC50 stood at 1070 nM in test [1] (setting [4]); 1940 nM in test [1] (setting [5]); 1060 nM in test [1] (setting [6]); 880 nM in test [1] (setting [7]); 1180 nM in test [1] (setting [8]); 870 nM in test [1] (setting [9]). Also, the 50% inhibitory concentration (IC50) is 1490 nM in test [1] (setting [10]); 870 nM in test [1] (setting [11]); 1260 nM with brain cancer cell lines (setting [12]); over 10000 nM in the test with brain cancer cell lines (setting [13]); 880 nM with brain cancer cell lines (setting [14]); over 2000 nM in test [2] (setting [15]). Besides, the IC50 in test [2] (setting [16]) is over 2000 nM; in test [2] (setting [17]), over 10000 nM; in test [2] (setting [18]) it was over 2000 nM; in test [2] (setting [19]), over 2000 nM; in test [2] (setting [20]) it was 880 nM; in test [2] (setting [21]), over 2000 nM. Besides, the concentration for half-maximal inhibition (IC50) in the test with renal cancer cell lines is over 2000 nM; in test [3] it was over 10000 nM.
For `CC(=O)c1c(SCc2ccc(F)c(Cl)c2)[nH]c2c(Br)ccc(Cl)c2c1=O` [Compound 30, 3-acetyl-8-bromo-5-chloro-2-((3-chloro-4-fluorobenzyl)thio)quinolin-4(1H)-one], the half-inhibitory concentration (IC50) in test [1] (setting [4]), in test [1] (setting [5]), in test [1] (setting [6]), in test [1] (setting [7]), in test [1] (setting [8]) and in test [1] (setting [9]) was over 2000 nM in each case. Further, the IC50 in test [1] (setting [10]) is over 2000 nM; in test [1] (setting [11]) it was over 2000 nM; in the test on brain cancer cell lines (setting [12]), over 10000 nM; in the test on brain cancer cell lines (setting [13]), over 10000 nM; with brain cancer cell lines (setting [14]) it was over 2000 nM; in test [2] (setting [15]), over 2000 nM. Also, the concentration for half-maximal inhibition (IC50) in test [2] (setting [16]) was over 2000 nM; in test [2] (setting [17]), over 10000 nM; in test [2] (setting [18]), over 2000 nM; in test [2] (setting [19]) it was over 2000 nM; in test [2] (setting [20]), over 2000 nM; in test [2] (setting [21]), over 2000 nM. For the same molecule, the figures for the concentration for half-maximal inhibition (IC50) (in the test with renal cancer cell lines; in test [3]) were over 2000 nM and over 10000 nM, respectively.
`CC(=O)c1c(SCc2ccc([N+](=O)[O-])cc2)[nH]c2c(Br)ccc(Cl)c2c1=O` [Compound 32, 3-acetyl-8-bromo-5-chloro-2-((4-nitrobenzyl)thio)quinolin-4(1H)-one]: the IC50 in test [1] (setting [4]), in test [1] (setting [5]), in test [1] (setting [6]), in test [1] (setting [7]), in test [1] (setting [8]) and in test [1] (setting [9]) was over 2000 nM in each case. In addition, the concentration for half-maximal inhibition (IC50) in test [1] (setting [10]) was over 2000 nM; in test [1] (setting [11]) it was over 2000 nM; with brain cancer cell lines (setting [12]), over 10000 nM; with brain cancer cell lines (setting [13]) it was over 10000 nM; in the test on brain cancer cell lines (setting [14]), over 2000 nM; in test [2] (setting [15]), over 2000 nM. In addition, the IC50 in test [2] (setting [16]) is over 2000 nM; in test [2] (setting [17]) it was over 10000 nM; in test [2] (setting [18]), over 2000 nM; in test [2] (setting [19]), over 2000 nM; in test [2] (setting [20]) it was over 2000 nM; in test [2] (setting [21]), over 2000 nM. For the same molecule, the figures for the concentration for half-maximal inhibition (IC50) (with renal cancer cell lines; in test [3]) were over 2000 nM and over 10000 nM, respectively.
